Source: patent publication US12239621B2, “Prevention of kidney injury induced by hemolytic reaction” (Niigata University, priority 2021, dated 2025)

Assays:
hemolysis model mice [1] = settings: cilastatin 400 mg/kg i.p. at 0, 3 and 6 h after phenylhydrazine, vs normal saline control group (FIG. 1)
Procedure: Phenylhydrazine (97% phenylhydrazine, Sigma-Aldrich Inc.) was dissolved in PBS in a concentration of 5 mg/ml to prepare a PBS solution, and the solution was intraperitoneally given to C57BL/6 mice (male, aged 10-12 weeks) so that the dose of phenylhydrazine was 1 mg/10 g, thereby constructing homolysis models.
To the hemolysis models, a) 400 mg/kg (diluted in 100 μL of normal saline) of cilastatin (Sigma-Aldrich Inc.), or b) 100 μL of normal saline was intraperitoneally administered at the time of phenylhydrazine dosing, 3 hours after the dosing, and 6 hours after the dosing. For each a) and b), 6 mice were used.
Then, for each individual in a) cilastatin-treated group and b) normal saline-treated group (control group), urine was pooled using a metabolic cage for 24 hours after phenylhydrazine dosing, and the obtained urine samples were collected.
The urine and serum were stored at −80° C. until analysis and measured for urinary KIM-1 and blood urea nitrogen. The measurements were conducted by Oriental Yeast Co., Ltd.

[2] = biological target: binding between megalin and Hx (Rattus norvegicus, UniProt P98158); settings: QCM, 1 mg cilastatin injected into 200 μL buffer in advance, rat Hx (FIG. 2-1)
Source text: (§1) Binding specificity between megalin and each ligand (hemoglobin, α1M, Hx), and the possible binding inhibition by cilastatin were verified using the quartz crystal microbalance (QCM) method by reference to the method described in PTL 2.
(§2) For the ligands to be verified, hemoglobin (LifeSpan Biosciences Inc., Rat Hemoglobin Native Protein, LS-G11201) and Hx (Sino Biological Inc., Rat Hemopexin/HPX protein (His Tag 81025-R08H)) were used. […]
(§3) After each of the ligand- or BSA-immobilized quartz crystal sensor was mounted in the measurement instrument AFFINIX® Q8 (Initium Inc.) and the frequency was confirmed to be stable, 8 μL of a 0.1 mg/mL solution of megalin purified from Sprague-Dawley (SD) rat kidneys according to the method of Orlando et al. was injected and frequency was measured with time.
(§4) More specifically, the megalin solution was reacted to each of the ligand-immobilized quartz crystal sensors placed in a chamber with 200 μL of buffer, and frequency was measured.
(§5) Additionally, 1 mg of cilastatin was injected into buffer in advance, each of the ligand-immobilized quartz crystal sensors was mounted in the measurement instrument, and after the frequency was confirmed to be stable, the megalin solution was injected and frequency was measured with time, whereby the antagonistic activity of cilastatin against the binding of each ligand to megalin was analyzed. […]

[3] = biological target: binding between megalin and hemoglobin (Rattus norvegicus, UniProt P98158); settings: QCM, 1 mg cilastatin injected into 200 μL buffer in advance, rat hemoglobin (FIG. 2-1)
Source text: as §1, §2, §3, §4, §5

[4] = biological target: binding between α1M and megalin (Rattus norvegicus, UniProt P98158); settings: QCM, 1 mg/200 μL cilastatin injected into buffer in advance, rat α1M (FIG. 2-2)
Source text: as §1

mice (C57BL/6) = settings: cilastatin sodium 400 mg/kg i.p.
Procedure: Cilastatin was administered to mice and changes in concentrations of each ligand in urine were observed.
Five mice (male, aged 12 weeks C57BL/6) were intraperitoneally administered with 400 mg/kg (diluted in 100 μL, of normal saline, cilastatin-treated group) of cilastatin sodium (Sigma-Aldrich Japan K.K., C5743), and then put in a metabolic cage for 3 hours to collect urine, and the urines of 5 mice were combined. Additionally, 100 μL, of normal saline was administered to another group of 5 mice (control group), and the same experiment as above was conducted.
Proteins were isolated from the obtained urine samples by electrophoresis (SDS-polyacrylamide gel), reductively alkylated (using dithiothreitol and iodoacetamide), digested with trypsin, and the obtained peptides were extracted to obtain a solid.
To the obtained solid, 15 μL, of 0.3% formic acid (FA) was added, shaken for 5 minutes, sonicated for 1 minute, and shaken again for 5 minutes. The resultant mixture was spun down, applied to a membrane filter having a pore diameter of 0.45 μm (ULtra free-MC, HV, 0.45 μm, Millipore), centrifuged at 10,000 rpm for 5 minutes, and the sample passed through the filter was subjected to LCMS analysis.
The analysis method described in Ohara et al., 2018, PLoS One, vol. 13, 1, e0204160 was referred to. The analysis method is shown below.
AnaLyst® TF1.6 (AB SCIEX) was used as an LCMS/MS data acquisition and analysis software, and the obtained raw data were converted to a peak list file (mgf file format), whereby MS/MS Ion Search (MIS search) was conducted using Matrix Science Mascot daemon, Mascot server 2.2.1. The sequence data base used was Uniprot, Swiss-Prot. Significance threshold was set to 0.05 (false discovery rate of less than 5%), and the proteins having 2 or more peptides exceeding the identification standard were listed as identified proteins.
Raw data were acquired 2 times per sample at LCMS to cover the issue of analysis reproducibility at LCMS, and the peak list files obtained from the 2 runs were combined and analyzed using Mascot (Ohara et al., 2018, PLoS One, vol. 13, 1, e0204160).
To the proteins identified in common in 2 groups when compared, the spectral count method was used, which is a label-free comparative, semiquantitative analysis method utilizing a principle that a large number of peptide fragments will be identified in those expressed at high levels, resulting in the increase in the number of MS/MS. In other words, the proteins identified in both of the cilastatin-treated group and control group were calculated for an SpC/L ratio (spectral abundance factor: SAF) of the cilastatin-treated group/control group, and the proteins having an SpC/L ratio of 2.0 or more were listed as the proteins abundant in urine of the cilastatin-treated group.

hemolysis model mice [5] = settings: cilastatin 400 mg/kg i.p. at 0, 3 and 6 h after phenylhydrazine, kidneys at 24 h, immunostaining (FIG. 5)
Procedure: Twenty-four hours after phenylhydrazine dosing, a portion containing a renal pedicle was sliced to 3 mm thickness from the right kidney and fixed with 4% paraformaldehyde phosphate buffer.
(§6) In line with Test Example 1, 1 mg/10 g of phenylhydrazine was given to C57BL/6 (male, aged 10-12 weeks), thereby constructing hemolysis model mice.
(§7) To the hemolysis models, a) 400 mg/kg (diluted in 100 μL, of normal saline) of cilastatin (Sigma-Aldrich Inc.), or b) 100 μL, of normal saline was intraperitoneally administered at the time of phenylhydrazine dosing, 3 hours after the dosing, and 6 hours after the dosing.

hemolysis model mice [6] = settings: cilastatin 400 mg/kg i.p. at 0, 3 and 6 h after phenylhydrazine, kidneys at 24 h, immunostaining (FIG. 7)
Procedure: as §6, §7
In the present test example, thinly sliced fixed samples obtained from the remaining right kidney of the same animal were immunostained (500-fold diluted) using an anti-α1M antibody (Gene Tex: GTX101068).

[7] = mice, 3 h urine pooled from 5 mice, LCMS

Chain of binding between megalin and hemoglobin (P98158 26-4660): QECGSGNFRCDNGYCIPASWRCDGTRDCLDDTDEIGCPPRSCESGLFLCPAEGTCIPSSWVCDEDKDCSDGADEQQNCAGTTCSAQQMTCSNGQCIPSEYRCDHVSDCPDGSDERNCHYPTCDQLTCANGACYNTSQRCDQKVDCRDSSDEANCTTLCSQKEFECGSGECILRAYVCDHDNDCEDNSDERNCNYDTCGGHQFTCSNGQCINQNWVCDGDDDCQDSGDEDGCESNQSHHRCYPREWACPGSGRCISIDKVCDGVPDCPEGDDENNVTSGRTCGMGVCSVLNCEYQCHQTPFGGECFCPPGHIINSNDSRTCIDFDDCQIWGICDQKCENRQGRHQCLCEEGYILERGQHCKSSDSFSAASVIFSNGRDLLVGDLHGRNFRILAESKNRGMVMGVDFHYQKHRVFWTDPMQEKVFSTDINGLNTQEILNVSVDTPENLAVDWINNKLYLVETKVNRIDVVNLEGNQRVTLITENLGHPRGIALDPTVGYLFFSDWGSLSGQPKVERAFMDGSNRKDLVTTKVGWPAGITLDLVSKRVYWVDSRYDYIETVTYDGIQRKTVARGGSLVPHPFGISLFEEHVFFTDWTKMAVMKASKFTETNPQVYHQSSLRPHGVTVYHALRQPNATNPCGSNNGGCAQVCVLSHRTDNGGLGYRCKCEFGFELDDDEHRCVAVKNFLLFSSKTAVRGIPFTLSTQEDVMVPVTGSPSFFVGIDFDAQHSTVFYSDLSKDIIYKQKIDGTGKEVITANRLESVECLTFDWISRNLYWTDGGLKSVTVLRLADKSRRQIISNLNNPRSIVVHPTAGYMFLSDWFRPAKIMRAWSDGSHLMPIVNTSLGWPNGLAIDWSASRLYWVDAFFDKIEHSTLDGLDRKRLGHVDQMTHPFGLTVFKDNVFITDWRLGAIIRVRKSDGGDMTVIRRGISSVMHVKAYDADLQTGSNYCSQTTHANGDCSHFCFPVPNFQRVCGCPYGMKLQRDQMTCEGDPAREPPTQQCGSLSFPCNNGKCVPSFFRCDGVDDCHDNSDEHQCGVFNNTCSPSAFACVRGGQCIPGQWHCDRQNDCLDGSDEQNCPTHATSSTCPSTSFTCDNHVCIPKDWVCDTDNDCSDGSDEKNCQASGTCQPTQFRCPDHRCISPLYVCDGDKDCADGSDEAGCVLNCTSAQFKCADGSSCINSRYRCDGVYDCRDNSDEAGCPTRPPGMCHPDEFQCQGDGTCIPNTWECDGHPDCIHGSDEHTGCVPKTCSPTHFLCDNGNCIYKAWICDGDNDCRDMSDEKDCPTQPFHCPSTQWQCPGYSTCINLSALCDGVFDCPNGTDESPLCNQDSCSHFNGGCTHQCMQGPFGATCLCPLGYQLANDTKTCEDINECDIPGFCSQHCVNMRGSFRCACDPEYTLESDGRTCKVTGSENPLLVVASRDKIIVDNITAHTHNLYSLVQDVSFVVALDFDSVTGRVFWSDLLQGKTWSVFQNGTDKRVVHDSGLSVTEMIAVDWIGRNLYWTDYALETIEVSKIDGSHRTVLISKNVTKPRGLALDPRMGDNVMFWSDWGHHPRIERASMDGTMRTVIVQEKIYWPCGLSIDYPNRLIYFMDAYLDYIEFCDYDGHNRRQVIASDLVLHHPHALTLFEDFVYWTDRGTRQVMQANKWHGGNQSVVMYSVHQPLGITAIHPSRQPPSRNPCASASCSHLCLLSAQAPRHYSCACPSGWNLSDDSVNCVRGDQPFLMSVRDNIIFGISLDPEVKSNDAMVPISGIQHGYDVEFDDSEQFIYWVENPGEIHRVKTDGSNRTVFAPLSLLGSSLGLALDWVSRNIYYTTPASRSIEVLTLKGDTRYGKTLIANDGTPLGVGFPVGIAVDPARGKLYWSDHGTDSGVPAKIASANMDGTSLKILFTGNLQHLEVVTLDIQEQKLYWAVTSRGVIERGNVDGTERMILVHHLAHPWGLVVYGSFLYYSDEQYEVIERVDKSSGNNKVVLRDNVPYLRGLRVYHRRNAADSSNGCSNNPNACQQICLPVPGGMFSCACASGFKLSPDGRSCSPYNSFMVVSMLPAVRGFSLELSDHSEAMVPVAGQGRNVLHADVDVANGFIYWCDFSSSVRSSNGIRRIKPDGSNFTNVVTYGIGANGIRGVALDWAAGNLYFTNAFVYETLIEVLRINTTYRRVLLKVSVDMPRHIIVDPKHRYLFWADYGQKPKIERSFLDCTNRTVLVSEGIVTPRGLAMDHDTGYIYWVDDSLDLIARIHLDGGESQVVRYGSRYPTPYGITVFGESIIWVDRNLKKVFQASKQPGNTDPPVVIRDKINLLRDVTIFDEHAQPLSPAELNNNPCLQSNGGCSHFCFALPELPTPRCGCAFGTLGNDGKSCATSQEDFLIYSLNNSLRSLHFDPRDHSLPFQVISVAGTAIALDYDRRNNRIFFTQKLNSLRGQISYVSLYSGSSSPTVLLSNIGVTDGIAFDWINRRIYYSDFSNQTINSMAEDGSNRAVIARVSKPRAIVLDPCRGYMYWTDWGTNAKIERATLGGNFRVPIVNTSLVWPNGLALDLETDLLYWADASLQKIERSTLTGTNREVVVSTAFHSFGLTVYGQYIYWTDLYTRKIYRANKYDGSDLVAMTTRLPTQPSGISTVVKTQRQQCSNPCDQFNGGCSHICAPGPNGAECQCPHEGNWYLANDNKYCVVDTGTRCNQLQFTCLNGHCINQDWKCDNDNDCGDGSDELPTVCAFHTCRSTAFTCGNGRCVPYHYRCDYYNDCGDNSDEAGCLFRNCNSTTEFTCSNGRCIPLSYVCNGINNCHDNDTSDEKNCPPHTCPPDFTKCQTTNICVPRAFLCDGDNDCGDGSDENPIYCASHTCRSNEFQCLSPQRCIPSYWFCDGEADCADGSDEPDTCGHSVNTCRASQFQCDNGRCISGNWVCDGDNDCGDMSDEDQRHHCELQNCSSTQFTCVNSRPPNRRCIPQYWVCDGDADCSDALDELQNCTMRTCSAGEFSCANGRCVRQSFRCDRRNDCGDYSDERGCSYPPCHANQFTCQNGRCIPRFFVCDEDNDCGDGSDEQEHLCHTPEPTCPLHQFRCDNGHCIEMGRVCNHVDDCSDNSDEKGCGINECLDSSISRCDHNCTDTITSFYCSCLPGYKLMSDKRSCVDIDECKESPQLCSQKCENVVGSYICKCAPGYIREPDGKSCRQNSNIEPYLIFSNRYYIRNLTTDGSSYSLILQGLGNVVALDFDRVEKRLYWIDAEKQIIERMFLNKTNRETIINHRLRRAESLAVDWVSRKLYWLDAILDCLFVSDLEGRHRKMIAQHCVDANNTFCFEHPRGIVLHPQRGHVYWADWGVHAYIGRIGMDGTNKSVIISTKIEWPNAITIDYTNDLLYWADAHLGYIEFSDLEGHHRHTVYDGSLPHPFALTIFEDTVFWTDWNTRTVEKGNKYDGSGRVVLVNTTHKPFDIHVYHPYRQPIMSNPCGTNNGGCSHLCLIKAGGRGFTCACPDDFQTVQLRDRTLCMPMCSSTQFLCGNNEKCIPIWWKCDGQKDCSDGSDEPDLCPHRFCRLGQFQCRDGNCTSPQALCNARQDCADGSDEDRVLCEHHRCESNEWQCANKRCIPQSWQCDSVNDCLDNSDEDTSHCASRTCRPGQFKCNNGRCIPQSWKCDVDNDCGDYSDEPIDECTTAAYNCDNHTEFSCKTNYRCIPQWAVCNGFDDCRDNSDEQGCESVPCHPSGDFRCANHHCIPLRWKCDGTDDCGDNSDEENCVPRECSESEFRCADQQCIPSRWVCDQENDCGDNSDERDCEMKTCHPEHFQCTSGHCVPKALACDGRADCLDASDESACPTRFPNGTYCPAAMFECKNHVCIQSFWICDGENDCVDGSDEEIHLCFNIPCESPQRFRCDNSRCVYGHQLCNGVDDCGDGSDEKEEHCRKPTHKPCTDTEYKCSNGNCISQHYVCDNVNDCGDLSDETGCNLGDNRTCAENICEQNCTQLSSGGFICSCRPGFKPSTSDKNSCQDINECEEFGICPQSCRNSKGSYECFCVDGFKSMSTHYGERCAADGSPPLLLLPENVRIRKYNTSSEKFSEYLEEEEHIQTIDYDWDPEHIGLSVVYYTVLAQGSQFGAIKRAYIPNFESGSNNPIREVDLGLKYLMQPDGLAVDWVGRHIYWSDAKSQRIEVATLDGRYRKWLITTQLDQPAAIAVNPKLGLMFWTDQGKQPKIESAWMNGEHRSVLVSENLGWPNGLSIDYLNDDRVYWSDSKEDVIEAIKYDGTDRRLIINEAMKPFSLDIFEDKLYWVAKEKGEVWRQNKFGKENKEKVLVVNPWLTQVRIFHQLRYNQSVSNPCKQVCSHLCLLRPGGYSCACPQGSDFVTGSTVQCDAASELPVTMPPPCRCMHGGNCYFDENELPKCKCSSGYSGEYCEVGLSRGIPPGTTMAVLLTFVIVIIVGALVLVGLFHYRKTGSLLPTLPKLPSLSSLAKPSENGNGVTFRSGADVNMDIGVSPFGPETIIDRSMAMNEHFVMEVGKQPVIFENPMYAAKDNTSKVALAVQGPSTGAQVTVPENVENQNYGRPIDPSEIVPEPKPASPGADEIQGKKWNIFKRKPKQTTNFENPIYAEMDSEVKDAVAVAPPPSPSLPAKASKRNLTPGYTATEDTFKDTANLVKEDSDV
Chain of binding between α1M and megalin (P98158 26-4660): as above
Chain of binding between megalin and Hx (P98158 26-4660): as above

Question: `CC1(C)C[C@@H]1C(=O)N/C(=C\CCCCSC[C@H](N)C(=O)O)C(=O)O` [cilastatin, (Z)-7-[[(R)-2-Amino-2-carboxyethyl]thio]-2-[[[(S)-2,2-dimethylcyclopropyl]carbonyl]amino]-2-heptenoic acid] was tested. Which “urinary KIM-1” value (hemolysis model mice [1]; 24 h pooled urine) did it give?
Answer: lower in the cilastatin (CS)-treated group than the control group

Question: And the blood urea nitrogen (hemolysis model mice [1]; serum at 24 h)?
Answer: lower in the cilastatin (CS)-treated group than the control group

Question: What about the “binding of megalin to Hx-immobilized quartz crystal sensor (drop of quartz crystal signals)” value [2] of the same molecule?
Answer: inhibited

Question: What about the “binding of megalin to hemoglobin-immobilized quartz crystal sensor (drop of quartz crystal signals)” value [3] of the same molecule?
Answer: inhibited

Question: What about the “binding of α1M to megalin-immobilized quartz crystal sensor (drop of quartz crystal signals)” value [4] of the same molecule?
Answer: inhibited

Question: And the “uptake of α1M and Hx into kidney tissues” value (mice (C57BL/6); concluded from higher urinary concentrations in the cilastatin-treated group)?
Answer: inhibits

Question: And the “SpC/L ratio (cilastatin-treated group/control group), urinary Albumin” value (mice (C57BL/6); [7])?
Answer: 1.10

Question: And the “SpC/L ratio (cilastatin-treated group/control group), urinary Clusterin” value (mice (C57BL/6); [7])?
Answer: 0.73

Question: What about the “SpC/L ratio (cilastatin-treated group/control group), urinary Hx” value (mice (C57BL/6); [7]) of the same molecule?
Answer: 2.33

Question: What about the “SpC/L ratio (cilastatin-treated group/control group), urinary Transcobalamin-2” value (mice (C57BL/6); [7]) of the same molecule?
Answer: 2.33

Question: And the “SpC/L ratio (cilastatin-treated group/control group), urinary Transthyretin” value (mice (C57BL/6); [7])?
Answer: 1.00

Question: What about the “SpC/L ratio (cilastatin-treated group/control group), urinary Vitamin D-binding protein” value (mice (C57BL/6); [7]) of the same molecule?
Answer: 0.80

Question: And the “SpC/L ratio (cilastatin-treated group/control group), urinary α1M” value (mice (C57BL/6); [7])?
Answer: 3.67

Question: And the “amounts of hemoglobin taken up into kidney tissues” value (hemolysis model mice [5])?
Answer: reduced

Question: And the “amounts of α1M taken up into kidney tissues” value (hemolysis model mice [6])?
Answer: reduced
